{"source": "patent US20120270771A1", "about": "“APOLIPOPROTEIN A-1 MIMIC PEPTIDES, AND THERAPEUTIC AGENT FOR TREATING HYPERLIPIDEMIA AND DISEASES RELATED TO HYPERLIPIDEMIA COMPRISING SAME” (SNU R&DB FOUNDATION, priority 2009, published 2012)", "key": {"[1]": {"assay": "tryptophan fluorescence measurement of peptide with or without liposome (LUV)", "type": "binding", "conditions": "for tryptophan fluorescence intensity measured under LUV condition (ratio with or without liposome): 1 μM peptide, liposome 0.1 mg/ml; for tryptophan fluorescence intensity measured under LUV condition (ratio with or without liposome) / increase in fluorescence intensity in the lipid environment when compared to in aqueous solution: FIG. 4; for dependence of tryptophan fluorescence intensity on the relative amount of cholesterol in the liposome: LUVs containing cholesterol at 0%, 10%, 20%, 30% and 40%, FIG. 5; for increase in fluorescence intensity in the lipid environment when compared to in aqueous solution: tryptophan fluorescence", "experimental": "Total 10 mg of lipid compound was prepared by mixing phosphatidylcholine (soybean) and the LUVs containing cholesterol at 0%, 10%, 20%, 30% and 40%. The lipid compound was dissolved in 2 mL of solution containing 2:1 volumes of chloroform and methanol. The solvent is removed by using distillation condensation device and yielding a thin lipid film in the flask. The lipid film is hydrated by adding 1 mL of tertiary distilled water. Liposomes of the same size were generated by extruding the solution through a […] filter for 5 times, and 0.1 μm polycarbonate filter for 5 times using a cylinder fitted with a high pressure regulator. The amount of cholesterol contained in the liposome was measured by using cholesterol Lab-assay kit.\nFluorescence Anisotropy was measured using AMINCO-Bowman Series Luminescence Spectrometer at 20° C. For the buffer system, 10 mM HEPES (N-2-Hydroxyethylpiperazine-N′-2-Ethanesulfonic Acid, pH 7.4) containing 140 mM NaCl, 1 mM EDTA (ethylenediaminetetraacetic acid) was used. The concentration of the peptide was 500 μM and was kept at 0° C. The fluorescence emission spectrum was monitored by adding […] of peptide with 499 μl buffer solution to a final concentration of 1 μM. Liposome was added to the above buffer and peptide mixture solution to the final concentration of 0.1 mg/ml. The ratio of the intensity was calculated by measuring the spectrum in the condition of with or without liposome."}, "macrophage cell line": {"system": "macrophage cell line", "assay": "cholesterol efflux assay in macrophage cells loaded with 3H-labeled cholesterol", "type": "cell-based, Human", "conditions": "20 μM peptide, 4 hr incubation", "experimental": "The present inventors determined the calculated mass value of the Apo A-I mimic peptide and the actual mass value of the A-1 mimic peptide acquired following the synthesis and purification step (see Table 1). In addition, cholesterol efflux was analyzed to screen the peptides. Human macrophage cells were treated with ^3H radioisotope labeled cholesterol. Next, the cells were treated with each of the peptide prepared from above. The amount of high density lipoprotein (HDL) produced was analyzed by measuring the amount of intracellular cholesterol and extracellular cholesterol released from the macrophage. […] There was a significant increase in cholesterol efflux when phenylalanine was substituted with tryptophan or naphthylalanine (see FIG. 3).\nIn order to screen which of the peptide synthesized from Example 1 mimics the Apo A-I, cholesterol efflux assay was performed by treating the macrophage cell line with the peptides. In particular, DMEM (Dulbecco's Modified Eagle medium) containing penicillin-streptomycin and 10% FBS (Fetal Bovine Serum) was used as the cell culture medium. […] The culture medium and the cells were separated to measure the radioactivity using Liquid Scintillation Counter. The level of cholesterol efflux was determined by measuring the ratio of isotope labeled cholesterol remained in the cell and in the cell culture medium, respectively."}}, "note": "Square brackets hold non-standard residues; d marks the D form. 2Nal = N[C@@H](Cc1ccc2ccccc2c1)C(=O)O", "data": [{"substance": "Ac-DWFKAFYDKVAEKFKEAF (Ac-DWFKAFYDKVAEKFKEAF-NH2) [4F, existing Apo A-I mimic peptide, first generation amphiphilic alpha helix peptide containing 4 phenylalanine, reference compound]", "values": [{"measurement": "tryptophan fluorescence intensity measured under LUV condition (ratio with or without liposome)", "setting": "[1]", "value": "about 1.9"}, {"measurement": "dependence of tryptophan fluorescence intensity on the relative amount of cholesterol in the liposome", "setting": "[1]", "value": "irrelevant to the concentration of cholesterol"}]}, {"substance": "Ac-EWNal2KAFYDKVAEKFKEANal2 (Ac-EW[2Nal]KAFYDKVAEKFKEA[2Nal]-NH2; SMILES CC(=O)N[C@@H](CCC(=O)O)C(=O)N[C@@H](Cc1c[nH]c2ccccc12)C(=O)N[C@@H](Cc1ccc2ccccc2c1)C(=O)N[C@@H](CCCCN)C(=O)N[C@@H](C)C(=O)N[C@@H](Cc1ccccc1)C(=O)N[C@@H](Cc1ccc(O)cc1)C(=O)N[C@@H](CC(=O)O)C(=O)N[C@@H](CCCCN)C(=O)N[C@H](C(=O)N[C@@H](C)C(=O)N[C@@H](CCC(=O)O)C(=O)N[C@@H](CCCCN)C(=O)N[C@@H](Cc1ccccc1)C(=O)N[C@@H](CCCCN)C(=O)N[C@@H](CCC(=O)O)C(=O)N[C@@H](C)C(=O)N[C@@H](Cc1ccc2ccccc2c1)C(N)=O)C(C)C) [2s]", "values": [{"measurement": "increase in cholesterol efflux when compared to peptide 4F", "setting": "macrophage cell line", "value": "about 300%"}, {"measurement": "tryptophan fluorescence intensity measured under LUV condition (ratio with or without liposome)", "setting": "[1]", "value": "about 4.3"}, {"measurement": "dependence of tryptophan fluorescence intensity on the relative amount of cholesterol in the liposome", "setting": "[1]", "value": "significant increase of fluorescence intensity according to the increased concentration of the cholesterol inside the liposome"}, {"measurement": "increase in fluorescence intensity in the lipid environment when compared to in aqueous solution", "setting": "[1]", "value": "about 4.30 fold"}]}, {"substance": "Ac-EWFKAFYDKVAEKFKEAF (Ac-EWFKAFYDKVAEKFKEAF-NH2) [1a]", "values": [{"measurement": "tryptophan fluorescence intensity measured under LUV condition (ratio with or without liposome)", "setting": "[1]", "value": "~2.1"}, {"measurement": "increase in fluorescence intensity in the lipid environment when compared to in aqueous solution", "setting": "[1]", "value": "about 2.1 fold"}]}, {"substance": "Ac-DWFAKDYFKKAFVEEFAK (Ac-DWFAKDYFKKAFVEEFAK-NH2) [Sc-4F, negative control group of 4F, reference compound]", "values": [{"measurement": "dependence of tryptophan fluorescence intensity on the relative amount of cholesterol in the liposome", "setting": "[1]", "value": "irrelevant to the concentration of cholesterol"}]}]}
